Test results: the kinase profiling compilation of Christmann-Franck et al. (2016)

Key:
Test in all cases: radiometric filter-binding kinase assay
STK24 (human) = STK24 (human) (UniProt Q9Y6E0); conditions: compound 1.0 µM
RPS6KA5 KD1 KD2 (human) = RPS6KA5 KD1 KD2 (human) (UniProt O75582); conditions: compound 10.0 µM
CDK2 CCNA2 (human) = CDK2 CCNA2 (human) (UniProt P20248+P24941)
CSK (human) = CSK (human) (UniProt P41240); conditions: compound 1.0 µM
RIPK2 (human) = RIPK2 (human) (UniProt O43353)
PIM1 (human) = PIM1 (human) (UniProt P11309)
IKBKE (human) = IKBKE (human) (UniProt Q14164); conditions: compound 10.0 µM
SYK (human) = SYK (human) (UniProt P43405)
MELK (human) = MELK (human) (UniProt Q14680); conditions: compound 1.0 µM
YES1 (human) = YES1 (human) (UniProt P07947); conditions: compound 1.0 µM
SIK2 (human) = SIK2 (human) (UniProt Q9H0K1); conditions: compound 10.0 µM
IGF1R (human) = IGF1R (human) (UniProt P08069)
WNK1 (human) = WNK1 (human) (UniProt Q9H4A3)
INSRR (human) = INSRR (human) (UniProt P14616); conditions: compound 1.0 µM
RPS6KA1 KD1 KD2 (human) = RPS6KA1 KD1 KD2 (human) (UniProt Q15418); conditions: compound 1.0 µM
MAP2K1 (human) = MAP2K1 (human) (UniProt Q02750); conditions: compound 1.0 µM
PKN2 (human) = PKN2 (human) (UniProt Q16513); conditions: compound 10.0 µM
SRC (human) = SRC (human) (UniProt P12931); conditions: compound 10.0 µM
EPHB2 (human) = EPHB2 (human) (UniProt P29323); conditions: compound 1.0 µM
[1] = test system: PAK2 (human), Q13177 [T402E]; conditions: compound 1.0 µM
MYLK (human) = MYLK (human) (UniProt Q15746)
MAPK1 (human) = MAPK1 (human) (UniProt P28482); conditions: compound 10.0 µM
[2] = target: STK11 CAB39 STRADA (human) (UniProt Q9Y376+Q7RTN6+Q15831)
NUAK1 (human) = NUAK1 (human) (UniProt O60285)
TSSK1B (human) = TSSK1B (human) (UniProt Q9BXA7); conditions: compound 1.0 µM
PRKAA1 or PRKAA2 (rat) = conditions: compound 1.0 µM; accession and sequence are those of the human protein
EPHB4 (human) = EPHB4 (human) (UniProt P54760)
MAPK9 (human) = MAPK9 (human) (UniProt P45984); conditions: compound 1.0 µM
NEK6 (human) = NEK6 (human) (UniProt Q9HC98); conditions: compound 10.0 µM
CAMKK2 (human) = CAMKK2 (human) (UniProt Q96RR4); conditions: compound 1.0 µM
MAPKAPK5 (human) = MAPKAPK5 (human) (UniProt Q8IW41)
LCK (mouse) = conditions: compound 1.0 µM; accession and sequence are those of the human protein
DYRK3 (human) = DYRK3 (human) (UniProt O43781); conditions: compound 1.0 µM
PTK6 (human) = PTK6 (human) (UniProt Q13882)
PHKG1 (human) = PHKG1 (human) (UniProt Q16816)
MAP3K7 TAB1 (human) = MAP3K7 TAB1 (human) (UniProt Q15750+O43318)
MINK1 (human) = MINK1 (human) (UniProt Q8N4C8); conditions: compound 10.0 µM
EPHB3 (human) = EPHB3 (human) (UniProt P54753)
MAPK14 (human) = MAPK14 (human) (UniProt Q16539)
MAP3K9 (human) = MAP3K9 (human) (UniProt P80192); conditions: compound 1.0 µM
GSK3B (human) = GSK3B (human) (UniProt P49841); conditions: compound 1.0 µM
ZAP70 (human) = ZAP70 (human) (UniProt P43403); conditions: compound 1.0 µM
NTRK1 (human) = NTRK1 (human) (UniProt P04629); conditions: compound 1.0 µM
CSNK1D (human) = CSNK1D (human) (UniProt P48730); conditions: compound 1.0 µM
TEK (human) = TEK (human) (UniProt Q02763)
SRPK1 (human) = SRPK1 (human) (UniProt Q96SB4)
STK33 (human) = STK33 (human) (UniProt Q9BYT3)

Sequence of PHKG1 (human) (Q16816 whole entry, looked up): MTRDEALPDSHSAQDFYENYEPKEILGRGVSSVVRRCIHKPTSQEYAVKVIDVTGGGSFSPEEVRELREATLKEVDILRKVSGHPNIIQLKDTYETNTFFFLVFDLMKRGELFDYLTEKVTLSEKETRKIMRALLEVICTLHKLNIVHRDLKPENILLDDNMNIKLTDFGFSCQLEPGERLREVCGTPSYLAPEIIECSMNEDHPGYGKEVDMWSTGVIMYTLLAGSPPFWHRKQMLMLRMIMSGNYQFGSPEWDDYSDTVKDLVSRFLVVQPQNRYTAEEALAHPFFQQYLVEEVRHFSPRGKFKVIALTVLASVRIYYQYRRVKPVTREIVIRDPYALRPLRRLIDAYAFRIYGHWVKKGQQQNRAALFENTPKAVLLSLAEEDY
Sequence of IGF1R (human) (P08069 whole entry, looked up): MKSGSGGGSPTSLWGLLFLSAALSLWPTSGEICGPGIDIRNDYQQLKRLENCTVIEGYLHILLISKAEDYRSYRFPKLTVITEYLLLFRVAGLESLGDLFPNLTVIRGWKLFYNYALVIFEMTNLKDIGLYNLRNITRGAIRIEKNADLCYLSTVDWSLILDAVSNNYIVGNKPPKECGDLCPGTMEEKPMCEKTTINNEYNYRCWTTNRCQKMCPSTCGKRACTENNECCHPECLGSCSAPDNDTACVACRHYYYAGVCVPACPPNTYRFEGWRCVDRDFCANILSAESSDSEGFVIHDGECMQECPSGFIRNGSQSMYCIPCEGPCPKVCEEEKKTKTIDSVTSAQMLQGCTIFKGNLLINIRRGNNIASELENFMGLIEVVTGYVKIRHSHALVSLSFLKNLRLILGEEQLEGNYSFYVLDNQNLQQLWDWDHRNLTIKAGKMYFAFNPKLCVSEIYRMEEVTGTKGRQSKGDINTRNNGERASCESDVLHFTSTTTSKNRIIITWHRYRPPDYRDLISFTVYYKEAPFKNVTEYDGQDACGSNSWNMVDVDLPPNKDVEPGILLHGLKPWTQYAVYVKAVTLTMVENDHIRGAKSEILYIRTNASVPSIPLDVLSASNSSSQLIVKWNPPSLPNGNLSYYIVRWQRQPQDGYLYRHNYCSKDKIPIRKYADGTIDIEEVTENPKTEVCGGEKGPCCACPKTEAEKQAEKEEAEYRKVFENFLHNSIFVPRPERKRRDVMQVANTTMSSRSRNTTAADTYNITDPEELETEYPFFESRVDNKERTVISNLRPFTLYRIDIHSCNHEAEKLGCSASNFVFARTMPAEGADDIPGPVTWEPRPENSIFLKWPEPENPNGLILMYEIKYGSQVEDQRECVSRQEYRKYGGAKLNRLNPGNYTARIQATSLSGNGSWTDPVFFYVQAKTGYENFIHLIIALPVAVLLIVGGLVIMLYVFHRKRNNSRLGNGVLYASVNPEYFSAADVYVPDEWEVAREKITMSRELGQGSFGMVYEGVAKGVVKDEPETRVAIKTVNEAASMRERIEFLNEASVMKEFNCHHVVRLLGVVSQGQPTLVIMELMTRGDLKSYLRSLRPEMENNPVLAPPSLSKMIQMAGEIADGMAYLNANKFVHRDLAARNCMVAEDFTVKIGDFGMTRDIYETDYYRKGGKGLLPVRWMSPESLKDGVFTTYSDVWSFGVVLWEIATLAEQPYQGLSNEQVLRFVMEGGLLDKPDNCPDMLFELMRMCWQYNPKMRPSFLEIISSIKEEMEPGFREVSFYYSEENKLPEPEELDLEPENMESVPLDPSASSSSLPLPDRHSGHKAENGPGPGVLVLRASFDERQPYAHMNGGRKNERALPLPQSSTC
Sequence of STK11 CAB39 STRADA (human) (Q15831 whole entry, looked up): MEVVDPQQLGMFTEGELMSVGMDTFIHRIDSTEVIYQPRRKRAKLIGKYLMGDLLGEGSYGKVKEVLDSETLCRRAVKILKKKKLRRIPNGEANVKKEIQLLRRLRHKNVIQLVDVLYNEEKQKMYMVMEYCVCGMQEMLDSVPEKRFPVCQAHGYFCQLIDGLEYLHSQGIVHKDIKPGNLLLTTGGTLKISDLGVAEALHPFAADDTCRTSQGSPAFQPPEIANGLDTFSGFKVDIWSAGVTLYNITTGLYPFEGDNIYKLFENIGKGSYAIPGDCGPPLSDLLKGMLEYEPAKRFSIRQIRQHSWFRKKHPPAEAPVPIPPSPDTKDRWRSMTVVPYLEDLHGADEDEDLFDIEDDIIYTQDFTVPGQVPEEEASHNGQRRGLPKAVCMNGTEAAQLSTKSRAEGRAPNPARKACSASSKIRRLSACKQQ
Sequence of STK11 CAB39 STRADA (human) (Q7RTN6 whole entry, looked up): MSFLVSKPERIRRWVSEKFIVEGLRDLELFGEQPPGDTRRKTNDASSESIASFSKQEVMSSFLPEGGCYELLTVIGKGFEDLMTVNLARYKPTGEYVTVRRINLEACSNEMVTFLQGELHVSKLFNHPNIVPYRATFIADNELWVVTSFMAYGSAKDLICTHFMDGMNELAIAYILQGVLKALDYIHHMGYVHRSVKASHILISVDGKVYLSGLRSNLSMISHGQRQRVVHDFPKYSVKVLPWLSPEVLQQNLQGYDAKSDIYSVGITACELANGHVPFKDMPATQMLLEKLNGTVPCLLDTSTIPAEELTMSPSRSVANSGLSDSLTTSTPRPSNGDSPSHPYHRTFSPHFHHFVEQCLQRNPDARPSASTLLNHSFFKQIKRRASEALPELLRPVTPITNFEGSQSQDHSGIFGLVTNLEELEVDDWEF
Sequence of STK11 CAB39 STRADA (human) (Q9Y376 whole entry, looked up): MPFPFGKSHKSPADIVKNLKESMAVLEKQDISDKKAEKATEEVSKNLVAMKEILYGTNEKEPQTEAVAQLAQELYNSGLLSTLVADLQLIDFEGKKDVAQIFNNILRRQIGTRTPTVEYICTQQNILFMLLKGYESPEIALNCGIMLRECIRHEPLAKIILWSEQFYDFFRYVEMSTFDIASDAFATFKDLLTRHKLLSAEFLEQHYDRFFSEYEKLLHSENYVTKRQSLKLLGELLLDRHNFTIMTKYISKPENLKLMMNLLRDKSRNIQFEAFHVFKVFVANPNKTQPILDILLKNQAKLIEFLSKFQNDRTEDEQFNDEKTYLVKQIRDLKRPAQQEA
Sequence of MAP3K7 TAB1 (human) (O43318 whole entry, looked up): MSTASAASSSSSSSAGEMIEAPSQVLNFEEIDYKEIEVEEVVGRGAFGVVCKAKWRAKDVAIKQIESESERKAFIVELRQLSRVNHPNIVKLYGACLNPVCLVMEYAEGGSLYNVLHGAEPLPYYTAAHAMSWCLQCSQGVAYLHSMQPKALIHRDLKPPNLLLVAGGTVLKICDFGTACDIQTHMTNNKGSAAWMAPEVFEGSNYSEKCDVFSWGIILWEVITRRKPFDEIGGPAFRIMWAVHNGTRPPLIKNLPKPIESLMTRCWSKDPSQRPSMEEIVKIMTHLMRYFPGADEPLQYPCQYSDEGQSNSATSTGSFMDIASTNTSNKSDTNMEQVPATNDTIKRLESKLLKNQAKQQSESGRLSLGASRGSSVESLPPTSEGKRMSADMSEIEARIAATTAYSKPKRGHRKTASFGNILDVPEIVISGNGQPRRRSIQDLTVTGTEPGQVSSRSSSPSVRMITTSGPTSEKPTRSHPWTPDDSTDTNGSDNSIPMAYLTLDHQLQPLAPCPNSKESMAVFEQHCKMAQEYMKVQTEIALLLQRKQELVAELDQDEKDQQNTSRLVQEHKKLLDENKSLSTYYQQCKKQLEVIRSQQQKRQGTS
Sequence of MAP3K7 TAB1 (human) (Q15750 whole entry, looked up): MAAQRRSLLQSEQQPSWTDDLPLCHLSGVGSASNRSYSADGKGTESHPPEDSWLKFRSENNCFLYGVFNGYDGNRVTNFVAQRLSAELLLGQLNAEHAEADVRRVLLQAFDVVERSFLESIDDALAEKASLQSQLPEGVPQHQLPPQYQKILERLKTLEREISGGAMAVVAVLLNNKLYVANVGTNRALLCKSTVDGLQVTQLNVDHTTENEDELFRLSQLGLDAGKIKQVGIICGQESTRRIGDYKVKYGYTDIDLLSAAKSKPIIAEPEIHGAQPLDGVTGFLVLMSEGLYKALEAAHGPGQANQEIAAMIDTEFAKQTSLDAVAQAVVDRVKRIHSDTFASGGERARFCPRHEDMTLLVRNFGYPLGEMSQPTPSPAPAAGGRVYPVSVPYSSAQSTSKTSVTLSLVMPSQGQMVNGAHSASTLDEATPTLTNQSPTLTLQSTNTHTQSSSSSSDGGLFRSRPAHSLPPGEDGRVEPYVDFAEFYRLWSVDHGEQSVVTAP
Sequence of MAPKAPK5 (human) (Q8IW41 whole entry, looked up): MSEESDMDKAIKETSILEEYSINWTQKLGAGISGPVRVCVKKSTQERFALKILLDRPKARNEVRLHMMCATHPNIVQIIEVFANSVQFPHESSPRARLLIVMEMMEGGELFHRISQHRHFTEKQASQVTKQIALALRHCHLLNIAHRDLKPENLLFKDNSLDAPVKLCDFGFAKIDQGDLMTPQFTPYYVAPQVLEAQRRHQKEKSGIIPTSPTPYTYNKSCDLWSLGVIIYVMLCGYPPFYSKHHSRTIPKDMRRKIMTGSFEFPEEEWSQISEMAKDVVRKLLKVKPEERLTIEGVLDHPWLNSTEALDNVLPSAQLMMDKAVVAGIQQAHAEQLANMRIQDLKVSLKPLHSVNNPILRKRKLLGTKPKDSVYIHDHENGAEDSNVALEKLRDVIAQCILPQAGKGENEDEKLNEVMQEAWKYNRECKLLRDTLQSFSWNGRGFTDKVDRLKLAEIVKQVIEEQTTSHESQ
Sequence of PIM1 (human) (P11309 whole entry, looked up): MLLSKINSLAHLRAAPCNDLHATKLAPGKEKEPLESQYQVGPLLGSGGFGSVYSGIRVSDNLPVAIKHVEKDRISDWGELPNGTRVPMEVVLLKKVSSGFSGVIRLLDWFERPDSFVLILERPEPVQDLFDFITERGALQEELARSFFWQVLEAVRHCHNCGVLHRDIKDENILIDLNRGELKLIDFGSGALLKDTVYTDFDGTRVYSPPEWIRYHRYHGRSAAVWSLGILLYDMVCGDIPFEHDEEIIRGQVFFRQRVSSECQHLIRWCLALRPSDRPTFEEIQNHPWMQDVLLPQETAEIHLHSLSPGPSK

SMILES: O=C(Nc1cccnc1)c1cc(-c2ccnc(F)c2)ccc1OCc1ccccc1
- residual activity (STK24 (human)): 101%
- residual activity (RPS6KA5 KD1 KD2 (human)): 120%
- residual activity (CDK2 CCNA2 (human); compound 1.0 µM): 113%
- residual activity (CDK2 CCNA2 (human); compound 10.0 µM): 117%
- residual activity (CSK (human)): 104%
- residual activity (RIPK2 (human); compound 1.0 µM): 59%
- residual activity (RIPK2 (human); compound 10.0 µM): 56%
- residual activity (PIM1 (human); compound 1.0 µM): 102%
- residual activity (PIM1 (human); compound 10.0 µM): 109%
- residual activity (IKBKE (human)): 102%
- residual activity (SYK (human); compound 1.0 µM): 115%
- residual activity (SYK (human); compound 10.0 µM): 125%
- residual activity (MELK (human)): 102%
- residual activity (YES1 (human)): 120%
- residual activity (SIK2 (human)): 111%
- residual activity (IGF1R (human); compound 1.0 µM): 123%
- residual activity (IGF1R (human); compound 10.0 µM): 117%
- residual activity (WNK1 (human); compound 1.0 µM): 104%
- residual activity (WNK1 (human); compound 10.0 µM): 106%
- residual activity (INSRR (human)): 76%
- residual activity (RPS6KA1 KD1 KD2 (human)): 69%
- residual activity (MAP2K1 (human)): 77%
- residual activity (PKN2 (human)): 79%
- residual activity (SRC (human)): 160%
- residual activity (EPHB2 (human)): 123%
- residual activity [1]: 116%
- residual activity (MYLK (human); compound 1.0 µM): 32%
- residual activity (MYLK (human); compound 10.0 µM): 23%
- residual activity (MAPK1 (human)): 115%
- residual activity ([2]; compound 1.0 µM): 97%
- residual activity ([2]; compound 10.0 µM): 105%
- residual activity (NUAK1 (human); compound 1.0 µM): 31%
- residual activity (NUAK1 (human); compound 10.0 µM): 58%
- residual activity (TSSK1B (human)): 103%
- residual activity (PRKAA1 or PRKAA2 (rat)): 90%
- residual activity (EPHB4 (human); compound 1.0 µM): 118%
- residual activity (EPHB4 (human); compound 10.0 µM): 108%
- residual activity (MAPK9 (human)): 107%
- residual activity (NEK6 (human)): 65%
- residual activity (CAMKK2 (human)): 71%
- residual activity (MAPKAPK5 (human); compound 1.0 µM): 109%
- residual activity (MAPKAPK5 (human); compound 10.0 µM): 114%
- residual activity (LCK (mouse)): 113%
- residual activity (DYRK3 (human)): 101%
- residual activity (PTK6 (human); compound 1.0 µM): 103%
- residual activity (PTK6 (human); compound 10.0 µM): 101%
- residual activity (PHKG1 (human); compound 1.0 µM): 78%
- residual activity (PHKG1 (human); compound 10.0 µM): 75%
- residual activity (MAP3K7 TAB1 (human); compound 1.0 µM): 108%
- residual activity (MAP3K7 TAB1 (human); compound 10.0 µM): 101%
- residual activity (MINK1 (human)): 76%
- residual activity (EPHB3 (human); compound 1.0 µM): 121%
- residual activity (EPHB3 (human); compound 10.0 µM): 113%
- residual activity (MAPK14 (human); compound 1.0 µM): 101%
- residual activity (MAPK14 (human); compound 10.0 µM): 102%
- residual activity (MAP3K9 (human)): 69%
- residual activity (GSK3B (human)): 119%
- residual activity (ZAP70 (human)): 103%
- residual activity (NTRK1 (human)): 80%
- residual activity (CSNK1D (human)): 107%
- residual activity (TEK (human); compound 1.0 µM): 119%
- residual activity (TEK (human); compound 10.0 µM): 133%
- residual activity (SRPK1 (human); compound 1.0 µM): 61%
- residual activity (SRPK1 (human); compound 10.0 µM): 69%
- residual activity (STK33 (human); compound 1.0 µM): 64%
- residual activity (STK33 (human); compound 10.0 µM): 66%
